Source: ChEMBL document CHEMBL1201862, “PubChem BioAssay data set” (2004)
Activity calls are given as the source filed them.

What was measured:
[1] = target: Induced myeloid leukemia cell differentiation protein Mcl-1 (Homo sapiens, UniProt Q07820); type: functional
SUMO-activating enzyme [2] = target: T1, SUMO-activating enzyme (Homo sapiens, UniProt Q9UBT2); experiment: inhibitors of in vitro SUMOylation cascade, primary screen, biochemical, HTRF, uHTS (AID 2006); type: protein-complex assay
[3] = HIV-1 Env-mediated cell fusion inhibitors, dose response, CCR5-tropic Env (AID 2279); type: functional
SUMO-activating enzyme [4] = target: T1, SUMO-activating enzyme; experiment: SUMOylation inhibitor hit validation, confirmation, SUMOylation inhibitor project, biochemical, AlphaScreen (AID 2018); type: functional
[5] = target: T2, Calpain-2 catalytic subunit (Sus scrofa, UniProt P43367); experiment: pig calpain II inhibitor potency, dose response, biochemical, fluorogenic peptide substrate (AID 1420); type: functional
T2 sequence (P43367 whole entry): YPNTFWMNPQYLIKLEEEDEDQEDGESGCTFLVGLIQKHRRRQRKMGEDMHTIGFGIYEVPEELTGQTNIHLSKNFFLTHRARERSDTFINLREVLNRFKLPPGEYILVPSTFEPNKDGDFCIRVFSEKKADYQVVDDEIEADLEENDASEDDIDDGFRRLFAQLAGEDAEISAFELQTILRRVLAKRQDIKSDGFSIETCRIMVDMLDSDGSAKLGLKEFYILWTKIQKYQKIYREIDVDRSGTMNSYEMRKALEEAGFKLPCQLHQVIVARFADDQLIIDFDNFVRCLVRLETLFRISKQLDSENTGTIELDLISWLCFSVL

HT-1080 = experiment: cytotoxicity in HT1080 fibrosarcoma cells, cell-based, fluorescence readout (AID 620); type: functional; details: Homo sapiens
[6] = target: Luciferin 4-monooxygenase (Photinus pyralis, UniProt P08659); experiment: Counter Screen for Luciferase-based Assay Positives. [Related pubchem assays: 620, 618, 411 ]
Chain of Luciferin 4-monooxygenase (P08659 whole entry): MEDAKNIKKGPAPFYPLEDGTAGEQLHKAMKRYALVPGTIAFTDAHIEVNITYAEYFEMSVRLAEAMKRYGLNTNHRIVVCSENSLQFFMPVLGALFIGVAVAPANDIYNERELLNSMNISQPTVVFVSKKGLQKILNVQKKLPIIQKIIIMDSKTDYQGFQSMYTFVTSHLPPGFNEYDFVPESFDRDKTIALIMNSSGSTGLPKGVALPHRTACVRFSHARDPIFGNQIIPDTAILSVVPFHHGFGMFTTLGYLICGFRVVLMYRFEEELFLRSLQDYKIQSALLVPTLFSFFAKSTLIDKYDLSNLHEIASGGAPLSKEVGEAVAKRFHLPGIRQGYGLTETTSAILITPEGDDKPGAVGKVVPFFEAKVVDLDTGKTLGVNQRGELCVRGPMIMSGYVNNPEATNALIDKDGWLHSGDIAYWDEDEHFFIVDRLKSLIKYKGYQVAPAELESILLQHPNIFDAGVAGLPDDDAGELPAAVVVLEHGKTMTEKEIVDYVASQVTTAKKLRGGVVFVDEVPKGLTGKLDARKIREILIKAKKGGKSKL

HeLa = experiment: Cytotoxicity counterscreen assay for transcriptional activators of heat shock protein 70 (Hsp70). [Related pubchem assays: 1203, 1252 ]; type: functional; details: Homo sapiens;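 also: cells exposed to compound for 16 hours before readout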
Bcl-2-like protein 10 = Bcl-2-like protein 10 (Homo sapiens, UniProt Q9HD36); experiment: Biochemical TR3 FP assay of Bcl-B inhibitor potency, EC50 (AID 1243); type: functional
Chain of Bcl-2-like protein 10 (Q9HD36 whole entry): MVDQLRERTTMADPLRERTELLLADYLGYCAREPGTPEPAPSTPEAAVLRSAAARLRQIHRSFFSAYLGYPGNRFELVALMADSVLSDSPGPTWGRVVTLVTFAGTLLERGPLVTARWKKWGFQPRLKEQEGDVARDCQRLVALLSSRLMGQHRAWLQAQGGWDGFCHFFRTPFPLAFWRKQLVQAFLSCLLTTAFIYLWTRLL

[7] = target: Mothers against decapentaplegic homolog 3 (Homo sapiens, UniProt P84022); experiment: Smad3 binding inhibitors, lysate ELISA, dose response, cell lysate, secondary confirmation, chemiluminescent ELISA, HEK293 lysate (AID 1058); type: functional
Chain of Mothers against decapentaplegic homolog 3 (P84022 whole entry): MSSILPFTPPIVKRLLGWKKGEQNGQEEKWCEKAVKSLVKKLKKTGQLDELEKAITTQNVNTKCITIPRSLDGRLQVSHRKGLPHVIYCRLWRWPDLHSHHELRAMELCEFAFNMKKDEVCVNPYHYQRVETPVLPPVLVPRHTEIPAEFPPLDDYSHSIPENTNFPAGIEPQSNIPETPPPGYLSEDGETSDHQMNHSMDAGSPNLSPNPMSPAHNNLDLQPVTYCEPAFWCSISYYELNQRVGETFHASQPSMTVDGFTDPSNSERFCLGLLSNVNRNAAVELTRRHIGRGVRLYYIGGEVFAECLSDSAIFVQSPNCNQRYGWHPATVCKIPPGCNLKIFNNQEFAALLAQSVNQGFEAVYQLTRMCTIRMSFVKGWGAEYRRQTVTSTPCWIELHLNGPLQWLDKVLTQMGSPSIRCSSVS

[8] = target: T3, Alkaline phosphatase, tissue-nonspecific isozyme (Homo sapiens, UniProt P05186)
T3 sequence (P05186 whole entry): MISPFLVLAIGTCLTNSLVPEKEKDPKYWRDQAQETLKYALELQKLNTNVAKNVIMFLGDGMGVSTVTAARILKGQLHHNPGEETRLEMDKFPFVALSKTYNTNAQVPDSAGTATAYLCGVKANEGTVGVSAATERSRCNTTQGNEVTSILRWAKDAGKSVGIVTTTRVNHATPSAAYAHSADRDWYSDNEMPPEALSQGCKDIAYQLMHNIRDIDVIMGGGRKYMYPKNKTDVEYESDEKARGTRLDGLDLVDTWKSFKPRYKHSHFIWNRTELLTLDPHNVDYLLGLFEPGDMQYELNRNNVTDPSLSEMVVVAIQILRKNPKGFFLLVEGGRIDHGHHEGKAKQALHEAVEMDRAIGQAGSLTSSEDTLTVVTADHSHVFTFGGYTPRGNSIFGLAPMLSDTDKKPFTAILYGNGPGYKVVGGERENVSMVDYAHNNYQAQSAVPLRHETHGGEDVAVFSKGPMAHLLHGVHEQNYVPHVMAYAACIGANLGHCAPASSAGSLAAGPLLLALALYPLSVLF

[9] = inhibitors of SNCA 5'UTR-driven reporter translation, confirmation, H4 neuroglioma cells, luminescence (AID 1988); type: functional, cell-based
BJ [10] = experiment: cytotoxicity toward BJ-TERT-LT-ST fibroblasts, dose response, cell-based, RAS-independent, luminescence (AID 1935); type: functional; details: Homo sapiens;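 also: BJ fibroblasts immortalized with TERT plus LT and ST oncogenes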
[11] = Luminescence Cell-Based Dose Retest to Confirm Inhibitors of Cancer Stem Cells. [Related pubchem assays (depositor defined):AID2717, AID2721]; type: functional, Homo sapiens
BJ [12] = experiment: cytotoxicity toward Ras-transformed BJeLR fibroblasts, dose response, cell-based, alamar blue fluorescence, cherrypicked samples (AID 2631); type: functional; details: Homo sapiens;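 also: confirmatory dose-response assay in RAS-dependent BJ fibroblasts engineered with TERT, LT and ST, with cytotoxicity read by fluorescence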
[13] = Luminescence-based counterscreen assay for KLF5 inhibitors: dose response cell-based high throughput screening assay to identify cytotoxic compounds using the IEC-6 intestinal epithelial cell line. [Related pubchem assays: 1700 (Primary screen.), 1834 (Confirmation screen.), 1858 (Summary AID.), 1905 (Counterscreen.)]; type: functional
[14] = Luminescence Cell-Based Dose Response HTS to Identify Inhibitors of 5'UTR Stem-Loop Driven Prion Protein mRNA Translation in H4 Neuroglioblastoma Cells. [Related pubchem assays: 1827 (Project Summary), 1813 (Primary HTS)]; type: functional
Vero [15] = experiment: cells; type: functional, cell-based; details: Chlorocebus sabaeus
BJ [16] = experiment: cytotoxicity toward BJ-TERT fibroblasts, dose response, cell-based, RAS-independent, luminescence (AID 1933); type: functional; details: Homo sapiens
[17] = cytotoxicity in HEK-293T cells, dose response, cytotoxicity control for TCR NF-kB inhibitor project, luminescence, T-cell screen hits (AID 489026); type: functional, cell-based;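 also: cells exposed to compound about 14 hours before the viability readout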
Paired box protein Pax-8 = Paired box protein Pax-8 (Homo sapiens, UniProt Q06710); experiment: inhibitors of PAX8-driven TPO luciferase reporter, dose response, RMG-I cells, cherry-pick (AID 687027); type: functional, cell-based;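 also: luciferase reporter driven by Pax8 target thyroperoxidase promoter measured by SteadyGlo luminescence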
Chain of Paired box protein Pax-8 (Q06710 whole entry): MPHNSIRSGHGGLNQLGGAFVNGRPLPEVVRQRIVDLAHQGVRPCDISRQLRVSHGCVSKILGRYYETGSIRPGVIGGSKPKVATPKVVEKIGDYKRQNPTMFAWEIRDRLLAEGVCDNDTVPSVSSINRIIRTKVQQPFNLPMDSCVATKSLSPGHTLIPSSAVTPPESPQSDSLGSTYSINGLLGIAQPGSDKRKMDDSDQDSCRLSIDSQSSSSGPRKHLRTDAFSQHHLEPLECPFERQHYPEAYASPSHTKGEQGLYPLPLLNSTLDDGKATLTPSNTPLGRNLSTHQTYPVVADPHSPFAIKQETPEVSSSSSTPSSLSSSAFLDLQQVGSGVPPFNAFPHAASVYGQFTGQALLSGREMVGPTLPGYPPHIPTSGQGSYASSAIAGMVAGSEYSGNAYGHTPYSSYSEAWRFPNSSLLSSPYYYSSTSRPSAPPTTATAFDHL

BJ [18] = experiment: cells; type: functional, cell-based; details: Homo sapiens
[19] = cytotoxicity toward DRD oncogenic fibroblasts, dose response, cell-based, non-viral oncogenic, luminescence (AID 1934); type: functional; details: Homo sapiens
Vero [20] = experiment: cells; type: functional; details: Chlorocebus sabaeus
[21] = inhibitors of firefly luciferase expression or activity, dose response, H4 neuroglioma cells, luminescence (AID 1990); type: functional, cell-based
Vero [22] = experiment: host cell cytotoxicity of antiviral hits, dose response, cytotoxicity control for West Nile virus antiviral project, secondary assay (AID 1650); type: functional; details: Chlorocebus sabaeus

T1 sequence (Q9UBE0 whole entry, the tested form may be a part): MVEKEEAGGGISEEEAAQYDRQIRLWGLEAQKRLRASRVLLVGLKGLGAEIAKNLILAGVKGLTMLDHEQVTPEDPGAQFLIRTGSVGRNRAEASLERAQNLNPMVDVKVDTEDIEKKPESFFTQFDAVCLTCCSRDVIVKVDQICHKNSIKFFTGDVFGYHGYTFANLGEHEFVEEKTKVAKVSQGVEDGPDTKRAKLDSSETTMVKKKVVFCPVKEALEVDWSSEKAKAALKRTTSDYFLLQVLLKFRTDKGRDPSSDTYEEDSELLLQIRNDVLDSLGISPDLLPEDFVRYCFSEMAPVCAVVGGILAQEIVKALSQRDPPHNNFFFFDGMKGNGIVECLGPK
T1 sequence (Q9UBT2 whole entry, the tested form may be a part): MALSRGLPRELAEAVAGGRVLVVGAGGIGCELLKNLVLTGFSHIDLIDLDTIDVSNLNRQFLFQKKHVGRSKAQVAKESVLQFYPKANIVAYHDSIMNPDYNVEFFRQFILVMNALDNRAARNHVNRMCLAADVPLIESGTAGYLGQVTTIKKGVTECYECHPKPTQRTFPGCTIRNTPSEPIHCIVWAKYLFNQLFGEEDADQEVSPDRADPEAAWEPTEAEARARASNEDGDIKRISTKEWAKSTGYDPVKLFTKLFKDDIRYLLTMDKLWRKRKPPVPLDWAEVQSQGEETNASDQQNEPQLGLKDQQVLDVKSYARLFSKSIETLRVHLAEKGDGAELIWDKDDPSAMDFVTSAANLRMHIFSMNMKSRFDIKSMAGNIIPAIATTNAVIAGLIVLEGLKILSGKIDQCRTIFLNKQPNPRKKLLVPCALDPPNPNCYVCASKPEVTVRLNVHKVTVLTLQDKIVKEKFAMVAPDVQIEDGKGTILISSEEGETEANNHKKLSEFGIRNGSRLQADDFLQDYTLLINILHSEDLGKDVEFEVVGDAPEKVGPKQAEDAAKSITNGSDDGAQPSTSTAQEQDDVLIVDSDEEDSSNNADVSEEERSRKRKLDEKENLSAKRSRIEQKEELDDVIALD
Chain of Induced myeloid leukemia cell differentiation protein Mcl-1 (Q07820 whole entry): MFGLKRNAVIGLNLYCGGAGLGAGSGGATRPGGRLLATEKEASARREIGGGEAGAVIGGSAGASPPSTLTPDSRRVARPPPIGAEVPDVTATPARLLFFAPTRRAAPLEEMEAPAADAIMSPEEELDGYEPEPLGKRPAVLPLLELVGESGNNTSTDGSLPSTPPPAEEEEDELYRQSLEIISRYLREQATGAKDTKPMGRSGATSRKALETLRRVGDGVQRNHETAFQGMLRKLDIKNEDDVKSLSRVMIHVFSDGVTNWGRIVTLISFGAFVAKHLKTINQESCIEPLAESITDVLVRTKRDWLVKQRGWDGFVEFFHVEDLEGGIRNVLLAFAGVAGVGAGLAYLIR

O=[N+]([O-])c1cccc(S(=O)(=O)Nc2nc3ccccc3nc2Nc2cccc(S(=O)(=O)N3CCCCC3)c2)c1
IC50 [1]: 5.85 µM (active) | IC50 (SUMO-activating enzyme [2]): 20.1 µM (active) | IC50 [3]: 6.03 µM (active) | IC50 (SUMO-activating enzyme [4]): 4.59 µM (active) | IC50 [5]: 4.49 µM (not active)

CCc1nnc(NC(=O)c2ccc(OC)cc2OC)s1
EC50 (HT-1080): > 50 µM (not active) | EC50 [6]: > 100 µM (not active)

Cc1cc(C)nc(SCc2nnc(SCC(=O)Nc3cc(C(F)(F)F)ccc3Cl)o2)n1
CC50 (HeLa): > 99 µM (not active)

COc1ccc(OC)c(C=NNC(=O)c2cc[n+](CC(=O)c3ccccc3)cc2)c1
EC50 (Bcl-2-like protein 10): 1.35 µM (active)

COc1ccc(C(c2cc3c(cc2O)OCO3)N2CCCC2)cc1 (configuration not stated)
IC50 [7]: 14.6 µM (not active)

COCCNC(=O)CCC(=O)NNc1nc2ccccc2c2nc(-c3ccccc3)nn12
EC50 [8]: 82 µM (not active)

C[C@@H]1O[C@@H](O[C@H]2C[C@@H](O)[C@]3(CO)[C@H]4[C@H](O)C[C@]5(C)[C@@H](C6COC(=O)C6)CC[C@]5(O)[C@@H]4CC[C@]3(O)C2)[C@H](O)[C@H](O)[C@H]1O (some centres not stated)
EC50 [9]: 0.102 µM (active) | EC50 (BJ [10]): 2.78 µM (inconclusive) | AC50 [11]: 1.28 µM (active) | AC50 ([11]; Homo sapiens): 1.46 µM (active) | EC50 (BJ [12]): 0.39 µM (active) | IC50 [13]: > 39.8 µM (not active) | EC50 [14]: 0.132 µM (active) | IC50 (Vero [15]): < 0.05 µM (active) | EC50 (BJ [16]): 0.405 µM (inconclusive) | IC50 [17]: > 80 µM (inactive) | AC50 (Paired box protein Pax-8): 5.38 µM (active) | EC50 (BJ [18]): 4.77 µM (inconclusive) | EC50 [19]: 0.44 µM (active) | CC50 (Vero [20]): 4.84 µM (active) | EC50 [21]: 0.251 µM (active) | CC50 (Vero [22]): 1.91 µM (active)
